System: patients with Alagille syndrome (ALGS)
Assay: ASSERT pruritus responders: ObsRO sleep parameters
Description: Treatment with concomitant medications for pruritus was permitted provided the patient was on a stable dosage for ≥4 weeks prior to enrollment that was maintained throughout the study.
Pruritus responders were defined as patients having a ≥1-point decrease in ObsRO scratching score from baseline to weeks 21-24).

Structure (SMILES): CCCCC1(CCCC)CN(c2ccccc2)c2cc(SC)c(OCC(=O)N[C@@H](C(=O)N[C@@H](CC)C(=O)O)c3ccc(O)cc3)cc2S(=O)(=O)N1 [odevixibat, 1,1-dioxo-3,3-dibutyl-5-phenyl-7-methylthio-8-(N-{(R)-α-[N-((S)-1-carboxypropyl)carbamoyl]-4-hydroxybenzyl}carbamoylmethoxy)-2,3,4,5-tetrahydro-1,2,5-benzothiadiazepine]
- Days seeing blood due to scratching, Baseline Mean (SE) (n=28): 35 (6) %
- Days sleeping with caregiver, Baseline Mean (SE) (n=28): 40 (9) %
- Days with help falling asleep, Baseline Mean (SE) (n=28): 59 (8) %
- Days with soothing, Baseline Mean (SE) (n=28): 68 (8) %
- Daytime tiredness, Baseline Mean (SE) (n=28, scale 0-4): 2.2 (0.2)
- Days seeing blood due to scratching, Mean (SE) Change From Baseline (to weeks 21-24): −30 (5) %
- Days sleeping with caregiver, Mean (SE) Change From Baseline (to weeks 21-24): −34 (8) %
- Days with help falling asleep, Mean (SE) Change From Baseline (to weeks 21-24): −44 (8) %
- Days with soothing, Mean (SE) Change From Baseline (to weeks 21-24): −53 (8) %
- Days seeing blood due to scratching, Week 24 Mean (SE) (weeks 21-24, n=27): 5 (2) %
- Days sleeping with caregiver, Week 24 Mean (SE) (weeks 21-24, n=27): 8 (5) %
- Days with help falling asleep, Week 24 Mean (SE) (weeks 21-24, n=27): 15 (6) %
- Days with soothing, Week 24 Mean (SE) (weeks 21-24, n=27): 16 (5) %
- Daytime tiredness, Week 24 Mean (SE) (weeks 21-24, n=28, scale 0-4): 1.0 (0.2)
